Data published in patent US12268725B2, “Composition of BL-8040” (BioLineRx Ltd., priority 2020, dated 2025).
Bridge positions count the residues as written; N and C are the ends. Square brackets hold non-standard residues; d marks the D form. * marks the point of attachment. 2Nal = N[C@@H](Cc1ccc2ccccc2c1)C(=O)O; Benzoyl(4-F) = O=C(c1ccc(F)cc1)*; Cit = NC(=O)NCCC[C@H](N)C(=O)O

Tested on: neutrophil migration to peripheral blood
Test: In vivo neutrophil migration to peripheral blood after injection
Details: mice, single subcutaneous dose of 5 mg/kg BL-8040 in 200 μl PBS, bled 2 hours after injection, flow cytometry of mature neutrophils, increase relative to control mice
Description: In some of any of the respective embodiments, promotion of in vivo neutrophil migration to peripheral blood is determined by subcutaneously injecting mice with 5 mg/kg of BL-8040 (SEQ ID NO: 1), reconstituted in 200 μl of PBS, then bleeding the mice 2 hours after injection (e.g., by cardiac puncture into tubes with heparin) and quantifying the number of mature neutrophils in the peripheral blood (e.g., by flow cytometry) relative to control (untreated) mice.
BL-8040 (SEQ ID NO: 1) is an antagonist of the CXCR4 chemokine receptor. The induction of the cellular activity mediated by CXCR4 is responsible for the attachment of white blood cells to the bone marrow stromal cells. Inhibition of the CXCR4 activity (e.g., by BL-8040 (SEQ ID NO: 1)) is therefore expected to induce the detachment of the white blood cells (which include but are not limited to neutrophils) from the bone marrow stroma, and the subsequent migration of the cells to the peripheral blood. […]
Mice were subcutaneously injected with a single dose of 5 mg/kg of BL-8040 (SEQ ID NO: 1), reconstituted in 200 μl of PBS. […] Flow cytometry was used to evaluate the number of mature neutrophils in the peripheral blood, and the increase relative to control mice was calculated.

Reference Example 1: BL-8040 prepared on Rink amide resin with HOBt/TBTU coupling and iodine cyclization; lacks the RRT 0.87 and 0.72 compounds ({Benzoyl(4-F)}-RR[2Nal]CY[Cit]K[dK]PYR[Cit]CR-NH2; disulfide 4-13 (inferred))
Fold increase in neutrophil number: 5.6
